Some test systems named below: DU-145 prostate; RXF 393 renal; OVCAR-5 ovarian; SNB-75 CNS; ACHN renal; 786-0 renal; SF-539 CNS; NCI-H522 lung; KM12 colon; COLO 205 colon.
What all share (assay): DTP human tumour cell line panel, 48 h

A word on the GI50: it is the concentration giving 50% growth inhibition. Usually TGI stands for the concentration at which net growth stops.

Each structure is given as a SMILES string. “And” between values parts separate entries of the source, which are not always exact repeats. Equal values may be shown once.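 Each compound was tested at five concentrations against cells in 96-well plates for 48 hours. GI50 = concentration required for 50% inhibition of growth. Definition used: TGI = concentration required for complete inhibition of growth.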 Where a SMILES comes first, the peptide text is derived from it. [ ]: non-standard residue; d: D form. The star is where a group is joined. ξ: configuration not given here. NMeN = CN[C@@H](CC(N)=O)C(=O)O; NMeV = CN[C@H](C(=O)O)C(C)C; ξNMeV = CNC(C(=O)O)C(C)C; Boc = CC(C)(C)OC(=O)*; ξNMeA = CNC(C)C(=O)O

For `O=C(N/N=C/c1ccccc1Cl)c1ccccc1Nc1ccnc(C(F)(F)F)c1`, the GI50 in the assay on DU-145 prostate is 2.5 µM; in the assay with RXF 393 renal, 0.174 µM; with OVCAR-5 ovarian, 2.75 µM; with SNB-75 CNS, 2.41 µM; in the assay with ACHN renal, 1.16 µM; with 786-0 renal, 0.616 µM. Moreover, the GI50 in the assay on SF-539 CNS was 1.6 µM; with NCI-H522 lung, 1.98 µM; in the assay with KM12 colon it was 1.99 µM; with COLO 205 colon it was 1.55 µM. Besides, the TGI was > 26.5 µM in the assay with DU-145 prostate; 1.1 µM in the assay on RXF 393 renal; 17.3 µM in the assay on OVCAR-5 ovarian; 26.7 µM with SNB-75 CNS; 4.72 µM with ACHN renal; 3.53 µM in the assay on 786-0 renal. Moreover, the TGI was 3.7 µM in the assay on SF-539 CNS, 6.74 µM in the assay with NCI-H522 lung, 6.66 µM in the assay on KM12 colon and 3.25 µM in the assay with COLO 205 colon.

As to `COC(=O)C(C)N(C)C(=O)[C@H](CC(N)=O)N(C)C(=O)[C@@H]1CCCN1C(=O)[C@H](C(C)C)N(C)C(=O)C(C(C)C)N(C)C(=O)[C@@H](NC(=O)OC(C)(C)C)C(C)C` (stereo partly specified) (Boc-V[ξNMeV][NMeV]P[NMeN][ξNMeA]-OMe), the TGI with DU-145 prostate is > 50 µM; in the assay on RXF 393 renal, > 50 µM and 96.8 µM; in the assay on OVCAR-5 ovarian it was > 100 µM; in the assay on SNB-75 CNS, > 100 µM; with ACHN renal, > 100 µM; with 786-0 renal it was > 100 µM. Besides, the TGI in the assay on SF-539 CNS was > 100 µM; in the assay on NCI-H522 lung it was > 50 µM; in the assay with KM12 colon, > 100 µM; in the assay on COLO 205 colon, > 100 µM. Moreover, the GI50 in the assay on RXF 393 renal was 32.6 µM; with OVCAR-5 ovarian, > 100 µM; with ACHN renal, > 100 µM; in the assay with 786-0 renal it was 57 µM; in the assay on SF-539 CNS, > 100 µM; with COLO 205 colon, 34.9 µM.

The values are drawn from PubChem BioAssay (NCI).
